Data set [1] in a line: Example 1: general pharmacokinetics in volunteers. Type of data set: in vivo, human. The protocol:
In 6 fasting healthy male volunteers, approximately 95% to 98% of a single oral dose of lomefloxacin HCl was absorbed. […] Mean plasma concentration increased proportionally between 100 and 400 mg as shown below.
In 6 healthy male volunteers administered 400 mg of lomefloxacin HCl on an empty stomach q.d. for 7 days, the following mean pharmacokinetic parameter values were obtained: [formula]
The elimination half-life in 8 subjects with normal renal function was approximately 8 hours. At 24 hours post dose, subjects with normal renal function receiving single doses of 200 or 400 mg lomefloxacin HCl had mean plasma lomefloxacin HCl concentrations of 0.10 and 0.24 μg/ml, respectively. Steady-state concentrations were achieved within 48 hours of initiating therapy with once-a-day dosing.
Approximately 65% of an orally administered dose of lomefloxacin HCl was excreted in the urine as unchanged drug in patients with normal renal function. Following a 400 mg dose of lomefloxacin HCl administered q.d. for 7 days, the mean urine concentration was in excess of 300 μg/ml 4 hours post dose. The mean urine concentration exceeded 35 μg/ml for at least 24 hours after dosing.
The urinary excretion of lomefloxacin HCl was virtually complete within 72 hours after cessation of dosing, with approximately 65% of the dose being recovered as parent drug and 9% as its glucuronide metabolite.

Another data set can be described thus: Serum protein binding. Type of data set: in vitro ADME.
A further data set concerns skin. Conditions: humans and animals; cited from earlier work.
The nature of data set [2]: Tissue or fluid to plasma ratios and blister fluid distribution after oral administration. In kind it is in vivo, human. Conditions: for Kp: oral, read-out: Mean Tissue or Fluid to Plasma Ratio. From the text:
The following are mean tissue or fluid to plasma ratios of lomefloxacin following oral administration.
Equilibrium between the serum and blister fluid is achieved approximately two hours postdose, with a partition coefficient of 1.0 (blister fluid:serum). The concentration vs. time profiles in blister fluid following single dose administration are similar to those obtained at steady-state during a once daily dosing regimen.

Another data set deals with Haemophilus influenzae. As to the kind of experiment: Activity in vitro and in clinical infections. Type of data set: cell-based.

The structures appear in SMILES notation. Structures can show the parent of a compound that is named as a salt. Where two headings read alike, the source gives them in different places.

These results are taken from US5668134A, “Method for preventing or reducing photosensitivity and/or phototoxicity reactions to medications” (priority 1994, dated 1997).

For `CCn1cc(C(=O)O)c(=O)c2cc(F)c(N3CCNC(C)C3)c(F)c21` (racemic) [lomefloxacin HCl, monohydrochloride salt of (±)-1-ethyl-6,8-difluoro-1,4-dihydro-7-(3-methyl-1-piperazinyl)-4-oxo-3-quinolinecarboxylic acid], the “glucuronide metabolite recovered in urine” value in data set [1] (human, in vivo) was 9%. In data set [1] (human, in vivo), the “time to steady-state concentrations” value is at most 48 h. In data set [1] (human, in vivo), the “time to virtually complete urinary excretion” value was at most 72 h. The compound also had a CL renal in data set [1] (human, in vivo, po) of 145 mL/min. Further, the Fa in data set [1] (human, in vivo, po) was in the range of 95 to 98%. Besides, in data set [1] (human, in vivo, po), the Tmax (as a rule, the time from dosing to the highest level) lay in the range of 0.8 to 1.4 h. For the same compound, the half-life (commonly how long it takes for the measured level to halve) in data set [1] (human, in vivo, po) is about 8 h. Besides, in data set [1] (single daily dosing, normal renal function), the drug accumulation entry is given as “no drug accumulation”. Moreover, the fraction unbound (commonly the share of the substance not bound to proteins or other matrix) in the data set “Serum protein binding” is about 0.9. For the same compound, the photoreactions of quinolones entry with skin is reported as “dose-dependent, drug-induced, UVA required photosensitivity reaction”. In addition, the Kp worked out at 1 in data set [2] (Blister Fluid); 2.1 in data set [2] (Bronchial mucosa); 0.6 in data set [2] (Bronchial secretions); 2 in data set [2] (Prostatic tissue); 1.3 in data set [2] (Sputum); 140 in data set [2] (Urine). In addition, in data set [2] (inflammatory exudate fluid of blisters), the “terminal half-life in blister fluid versus serum” value was “same terminal half-life”. The “time to equilibrium between serum and blister fluid” value in data set [2] (postdose) is “approximately two”. In the data set on Haemophilus influenzae, the “activity against most strains” value is “active against most strains”.
